Results: patent US11639350B2, “Heteroaryldihydropyrimidine derivatives and methods of treating hepatitis B infections” (Janssen Pharmaceutica NV, priority 2018, dated 2023)
Where two headings read alike, the source gives them in different places.

Legend:
Assay type in all cases: cell-based
HBV = HBV inhibitory activity: HBV DNA in the culture medium of HepG2.2.15 cells by q-PCR
In short: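 Supernatant HBV DNA quantified by q-PCR after a 6-day compound exposure, with one mid-course medium change, of HepG2.2.15 cells (stably integrated HBV; 40,000 per well, 2% FBS). Eight-point 3-fold series topped at 10 μM for antiviral EC50; separate plates of 5,000 cells per well with 100 μM top give CC50.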

HepG2.2.15 cells = assay: Cytotoxicity determination in HepG2.2.15 cells (CCK-8); settings: 6 days of compound treatment, CCK-8, highest concentration 100 μM
In short: (§1)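 CC50 is from CCK-8 absorbance (450 nm, 630 nm reference) after 2.5 h with reagent. Before that, compounds were applied for six days, top concentration 100 μM, eight threefold dilutions, one mid-course medium change, to stably HBV-integrated HepG2.2.15 cells plated at 5,000/well in 2% FBS.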

[1] = as above; settings: human, 6 days of compound treatment, CCK-8, highest concentration 100 μM
In short: as §1

[2] = HepG2.2.15 cells, 6 days of compound treatment, HBV DNA in culture medium by q-PCR, highest concentration 10 μM, read-out: EC50
[3] = Hepatitis B virus, HepG2.2.15, 144 h, HepG2.2.15 cells, 6 days of compound treatment, HBV DNA in culture medium by q-PCR, highest concentration 10 μM, read-out: EC50

Row | Structure (SMILES) | EC50 (HBV; [2]) | CC50 (HepG2.2.15 cells) | EC50 (HBV; [3]) | CC50 at 6 days [1] | EC50 (HBV; Hepatitis B virus, HepG2.2.15, 144 h)
1 | CCOC(=O)C1=C([C@@H]2CCC[C@H](C(=O)O)CC2)NC(c2nccs2)=NC1c1ccc(F)c(F)c1Cl (relative stereo) [Compound 302E, (cis)-4-(−6-(2-Chloro-3,4-difluorophenyl)-5-(ethoxycarbonyl)-2-(thiazol-2-yl)-3,6-dihydropyrimidin-4-1)cycloheptanecarboxylic Acid] | 0.025 µM | 14.6 µM |  |  | 
2 | COC(=O)C1=C(C2CCN(C)C(=O)C2)NC(c2nccs2)=NC1c1ccc(F)cc1Cl (single isomer, unassigned) [Compound 1A, Methyl 4-(2-chloro-4-fluorophenyl)-6-(1-methyl-2-oxopiperidin-4-yl)-2-(thiazol-2-yl)-1,4-dihydropyrimidine-5-carboxylate] | 0.386 µM | 90.2 µM |  |  | 
3 | COC(=O)C1=C(C2CCN(C)C(=O)C2)NC(c2nccs2)=NC1c1ccc(F)cc1Cl (single isomer, unassigned) [Compound 1B, Methyl 4-(2-chloro-4-fluorophenyl)-6-(1-methyl-2-oxopiperidin-4-yl)-2-(thiazol-2-yl)-1,4-dihydropyrimidine-5-carboxylate] | 0.096 µM | 13.6 µM |  |  | 
4 | COC(=O)C1=C(C2CCNC(=O)C2)NC(c2nccs2)=NC1c1ccc(F)cc1Cl (single isomer, unassigned) [Compound 3A, Methyl 4-(2-chloro-4-fluorophenyl)-6-(2-oxopiperidin-4-yl)-2-(thiazol-2-yl)-1,4-dihydro-pyrimidine-5-carboxylate] |  | 35.9 µM | 0.126 µM |  | 
5 | COC(=O)C1=C(C2CCNC(=O)C2)NC(c2nccs2)=NC1c1ccc(F)cc1Cl (single isomer, unassigned) [Compound 3C, Methyl 4-(2-chloro-4-fluorophenyl)-6-(2-oxopiperidin-4-yl)-2-(thiazol-2-yl)-1,4-dihydro-pyrimidine-5-carboxylate] | 0.132 µM | 5.6 µM |  |  | 
6 | COC(=O)C1=C(C2CCCN(S(C)(=O)=O)C2)NC(c2nccs2)=NC1c1ccc(F)cc1Cl (single isomer, unassigned) [Compound 33A, Methyl 4-(2-chloro-4-fluorophenyl)-6-(1-(methylsulfonyl)piperidin-3-yl)-2-(thiazol-2-yl)-1,4-dihydropyrimidine-5-carboxylate] | 0.19 µM | 78.1 µM |  |  | 
7 | COC(=O)C1=C(C2CCCN(S(C)(=O)=O)C2)NC(c2nccs2)=NC1c1ccc(F)cc1Cl (single isomer, unassigned) [Compound 33C, Methyl 4-(2-chloro-4-fluorophenyl)-6-(1-(methylsulfonyl)piperidin-3-yl)-2-(thiazol-2-yl)-1,4-dihydropyrimidine-5-carboxylate] | 0.484 µM | 37.7 µM |  |  | 
8 | CCOC(=O)C1=C(C2CCN(S(=O)(=O)CC3CC(C(=O)O)C3)CC2)NC(c2nccs2)=NC1c1ccc(F)c(F)c1Cl (centres unmarked) [Compound 480B, 3-(((4-(6-(2-Chloro-3,4-difluorophenyl)-5-(ethoxycarbonyl)-2-(thiazol-2-yl)-3,6-dihydropyrimidin-4-yl)piperidin-1-yl)sulfonyl)methyl)cyclobutanecarboxylic Acid] |  |  | 0.022 µM | 9.9 µM | 
9 | CCOC(=O)C1=C(C2CCN(S(=O)(=O)C3CC(CC(=O)O)C3)CC2)NC(c2nccs2)=NC1c1ccc(F)c(F)c1Cl (centres unmarked) [Compound 482A, 2-(3-((4-(6-(2-Chloro-3,4-difluorophenyl)-5-(ethoxycarbonyl)-2-(thiazol-2-yl)-3,6-dihydropyrimidin-4-yl)piperidin-1-yl)sulfonyl)cyclobutyl)acetic Acid] |  |  | 0.006 µM | 15.3 µM | 
10 | COC(=O)C1=C(C2CCN(S(=O)(=O)CCOCCO)CC2)NC(c2nccs2)=NC1c1ccc(F)cc1Cl (centres unmarked) [Compound 484, Methyl 4-(2-chloro-4-fluorophenyl)-6-(1-((2-(2-hydroxyethoxy)ethyl)sulfonyl)piperidin-4-yl)-2-(thiazol-2-yl)-1,4-dihydropyrimidine-5-carboxylate] |  |  |  | 47 µM | 0.005 µM
